# According to US20050267156A1, “Broadspectrum 2-amino-benzothiazole sulfonamide hiv protease inhibitors” (Tibotec Pharmaceuticals Ltd., priority 2002, published 2005):
# Like-named read-outs stand apart in the source and are kept apart here.
# What was measured:
# [1] = tested on: HIV-1 strain LAI; assay: Cellular anti-HIV assay (MT4/MTT), wild type; type: cell-based; settings: wild type HIV-1 strain LAI, MT4 cells; for EC50: Human immunodeficiency virus 1, read-out: WT (pEC50) (converted)
# Protocol: The compounds of the present invention were examined for anti-viral activity in a cellular assay. […] The cellular assay was performed according to the following procedure. HIV- or mock-infected MT4 cells were incubated for five days in the presence of various concentrations of the inhibitor. […] Cell viability is measured by measuring the concentration of MTT, a yellow, water soluble tetrazolium dye that is converted to a purple, water insoluble formazan in the mitochondria of living cells only. Upon solubilization of the resulting formazan crystals with isopropanol, the absorbance of the solution is monitored at 540 nm. The values correlate directly to the number of living cells remaining in the culture at the completion of the five-day incubation. The inhibitory activity of the compound was monitored on the virus-infected cells and was expressed as EC50 and EC90. These values represent the amount of the compound required to protect 50% and 90%, respectively, of the cells from the cytopathogenic effect of the virus. […] The selectivity index (SI) (ratio CC50/EC50) is an indication of the selectivity of the anti-HIV activity of the inhibitor. Wherever results are reported as e.g. pEC50 or pCC50 values, the result is expressed as the negative logarithm of the result expressed as EC50 or CC50 respectively.
# [2] = tested on: mock-infected MT4 cells; assay: Toxicity on mock-infected cells (MTT); type: cell-based
# Protocol: (§1) HIV- or mock-infected MT4 cells were incubated for five days in the presence of various concentrations of the inhibitor. At the end of the incubation period, the replicating virus in the control cultures has killed all HIV-infected cells in the absence of any inhibitor. Cell viability is measured by measuring the concentration of MTT, a yellow, water soluble tetrazolium dye that is converted to a purple, water insoluble formazan in the mitochondria of living cells only. Upon solubilization of the resulting formazan crystals with isopropanol, the absorbance of the solution is monitored at 540 nm. The values correlate directly to the number of living cells remaining in the culture at the completion of the five-day incubation. The inhibitory activity of the compound was monitored on the virus-infected cells and was expressed as EC50 and EC90. These values represent the amount of the compound required to protect 50% and 90%, respectively, of the cells from the cytopathogenic effect of the virus. […] The selectivity index (SI) (ratio CC50/EC50) is an indication of the selectivity of the anti-HIV activity of the inhibitor. Wherever results are reported as e.g. pEC50 or pCC50 values, the result is expressed as the negative logarithm of the result expressed as EC50 or CC50 respectively.
# [3] = tested on: mutant HIV strain D; assay: microbe, parasite or virus in culture; type: cell-based; settings: for fold resistance Strain D: FR=EC50 (mutant strain)/EC50 (HIV-1 strain LAI); for pEC50 Strain D: mutant HIV strain D, MT4 cells; for EC50: Human immunodeficiency virus 1, MT4, read-out: pEC50 Strain D, mutant HIV strain D, MT4 cells (converted)
# Protocol: (§2) HIV- or mock-infected MT4 cells were incubated for five days in the presence of various concentrations of the inhibitor. […] Cell viability is measured by measuring the concentration of MTT, a yellow, water soluble tetrazolium dye that is converted to a purple, water insoluble formazan in the mitochondria of living cells only. Upon solubilization of the resulting formazan crystals with isopropanol, the absorbance of the solution is monitored at 540 nm. The values correlate directly to the number of living cells remaining in the culture at the completion of the five-day incubation. The inhibitory activity of the compound was monitored on the virus-infected cells and was expressed as EC50 and EC90. These values represent the amount of the compound required to protect 50% and 90%, respectively, of the cells from the cytopathogenic effect of the virus. […] The selectivity index (SI) (ratio CC50/EC50) is an indication of the selectivity of the anti-HIV activity of the inhibitor. Wherever results are reported as e.g. pEC50 or pCC50 values, the result is expressed as the negative logarithm of the result expressed as EC50 or CC50 respectively.
# [4] = tested on: mutant HIV strain C; assay: microbe, parasite or virus in culture; type: cell-based; settings: for fold resistance Strain C: FR=EC50 (mutant strain)/EC50 (HIV-1 strain LAI); for pEC50 Strain C: mutant HIV strain C, MT4 cells; for EC50: Human immunodeficiency virus 1, MT4, read-out: pEC50 Strain C, mutant HIV strain C, MT4 cells (converted)
# Protocol: as §2
# [5] = tested on: mutant HIV strain A; assay: microbe, parasite or virus in culture; type: cell-based; settings: for fold resistance Strain A: FR=EC50 (mutant strain)/EC50 (HIV-1 strain LAI); for pEC50 Strain A: mutant HIV strain A, MT4 cells; for EC50: Human immunodeficiency virus 1, MT4, read-out: pEC50 Strain A, mutant HIV strain A, MT4 cells (converted)
# Protocol: as §2
# [6] = tested on: mutant HIV strain B; assay: microbe, parasite or virus in culture; type: cell-based; settings: for fold resistance Strain B: FR=EC50 (mutant strain)/EC50 (HIV-1 strain LAI); for pEC50 Strain B: mutant HIV strain B, MT4 cells; for EC50: Human immunodeficiency virus 1, MT4, read-out: pEC50 Strain B, mutant HIV strain B, MT4 cells (converted)
# Protocol: as §2
# [7] = tested on: mutant HIV strain E; assay: microbe, parasite or virus in culture; type: cell-based; settings: for fold resistance Strain E: FR=EC50 (mutant strain)/EC50 (HIV-1 strain LAI); for pEC50 Strain E: mutant HIV strain E, MT4 cells; for EC50: Human immunodeficiency virus 1, MT4, read-out: pEC50 Strain E, mutant HIV strain E, MT4 cells (converted)
# Protocol: as §2
# [8] = tested on: mutant HIV strain F; assay: microbe, parasite or virus in culture; type: cell-based; settings: for fold resistance Strain F: FR=EC50 (mutant strain)/EC50 (HIV-1 strain LAI); for pEC50 Strain F: mutant HIV strain F, MT4 cells; for EC50: Human immunodeficiency virus 1, MT4, read-out: pEC50 Strain F, mutant HIV strain F, MT4 cells (converted)
# Protocol: as §2
# [9] = Pharmacokinetics in rats; type: in vivo, Whistar rats; settings: rat
# Protocol: (§3) The pharmacokinetic properties of some compounds of formula (I) were tested on rats and dogs. The compounds were evaluated in Whistar rats, source Iffa Credo, weighing approximately 350 g. Before dosing the animals were fasted overnight (approximately 12 h fasting period). The compounds were dissolved in DMSO or PEG 400. The results represented in the table concern the results from the oral or intra-peritoneal dosing of the compounds. Blood was sampled at 30 min, 1 h, 2 h, 3 h, no pre-dose sample was taken. The amount of the compound in the biological sample was determined using LC-MS. In the table below “or” means oral dosing, “ip” means intraperitoneal dosing, “mpk” means mg per kilogram.
# [10] = Pharmacokinetics in dogs; type: in vivo; settings: or, dog, results normalized to 10 mpk
# Protocol: as §3
# [11] = Toxicity on mock-infected cells (MTT); type: cell-based; settings: human
# Protocol: as §1
# [12] = ip, DMSO, results normalized to 10 mpk
# [13] = or, PEG400, results normalized to 10 mpk
# [14] = Whistar, blood, ip, 10 mpk, ip, DMSO, results normalized to 10 mpk, read-out: Cmax
Molecule,WT (pEC50) [1],Tox (pCC50) [2],fold resistance Strain D [3],pEC50 Strain D [3],fold resistance Strain C [4],pEC50 Strain C [4],fold resistance Strain A [5],pEC50 Strain A [5],fold resistance Strain B [6],pEC50 Strain B [6],fold resistance Strain E [7],pEC50 Strain E [7],fold resistance Strain F [8],pEC50 Strain F [8],other results
"CC(C)CN(C[C@@H](O)[C@H](Cc1ccccc1)NC(=O)O[C@H]1CCOC1)S(=O)(=O)c1ccc2nc(N)sc2c1 [Compound 13, {(1S,2R)-3-[(2-amino-benzothiazole-6-sulfonyl)-isobutyl-amino]-1-benzyl-2-hydroxypropyl}-carbamic acid(S) (tetrahydro-furan-3-yl)ester]",8.52,<4,2.5,8.13,1.3,8.42,13.5,7.39,1.9,8.24,0.9,8.57,34.7,6.98,
"CNc1nc2ccc(S(=O)(=O)N(CC(C)C)C[C@@H](O)[C@H](Cc3ccccc3)NC(=O)O[C@H]3CO[C@H]4OCC[C@H]43)cc2s1 [Compound 5, {(1S,2R)-1-benzyl-2-hydroxy-3-[isobutyl-(2-methylamino-benzothiazole-6-sulfonyl)-amino]-propyl}-carbamic acid(3R,3aS,6aR)-(hexahydro-furo[2,3-b]furan-3-yl)ester]",9.26,4.15,,,0.4,9.71,0.8,9.37,0.5,9.57,,,3.5,8.71,
"{(1S,2R)-3-[(2-amino-benzothiazole-6-sulfonyl)-isobutyl-amino]-1-benzyl-2-hydroxypropyl}-carbamic acid(3R,3aS,6aR)-hexahydro-furo[2,3-b]furan-3-yl ester [Compound 2]",8.18,,0.3,8.69,0.4,8.54,0.3,8.68,0.4,8.59,0.5,8.50,0.5,8.45,"Cmax [9, 12]: 427 ng/mL; Cmax [9, 13]: 52 ng/mL; Tox (pCC50) ([2]; mock-infected MT4 cells, pCC50): 4.07"
"CNc1nc2ccc(S(=O)(=O)N(CC(C)C)C[C@@H](O)[C@H](Cc3ccccc3)NC(=O)O[C@H]3CCOC3)cc2s1.O=C(O)C(F)(F)F [Compound 22, {(1S,2R)-1-benzyl-2-hydroxy-3-[isobutyl-(2-methylamino-benzothiazole-6-sulfonyl)-amino]-propyl}-carbamic acid(S)(tetrahydro-furan-3-yl)ester trifluoroacetate]",8.84,<4,11.5,7.78,4.5,8.19,81.3,6.93,10.2,7.83,3.0,8.36,549.5,6.1,
"CNc1nc2ccc(S(=O)(=O)N(CC(C)C)C[C@@H](O)[C@H](Cc3ccccc3)NC(=O)O[C@H]3CCOC3)cc2s1 [Compound 21, {(1S,2R)-1-benzyl-2-hydroxy-3-[isobutyl-(2-methylamino-benzothiazole-6-sulfonyl)-amino]-propyl}-carbamic acid(S)(tetrahydro-furan-3-yl)ester]",,,,,,,,,,,,,,,"Cmax [9, 12]: 1763 ng/mL; Cmax ([9]; or, DMSO, results normalized to 10 mpk): 1139 ng/mL; Cmax [9, 13]: 1315 ng/mL; Cmax ([10]; PEG400 - 2 animals): 61 ng/mL; Cmax ([10]; PEG400 - 4 animals): 184 ng/mL"
"CNc1nc2ccc(S(=O)(=O)N(CC(C)C)C[C@@H](O)[C@H](Cc3ccccc3)NC(=O)COc3c(C)cc(CN)cc3C)cc2s1 [Compound 25, 2-(4-aminomethyl-2,6-dimethyl-phenoxy)-N-{(1S,2R)-1-benzyl-2-hydroxy-3-[isobutyl-(2-methylamino-benzothiazole-6-sulfonyl)-amino]-propyl}-acetamide]",,,10.0,,4.4,,10.7,,4.9,,4.3,,117.5,,"Cmax [9, 14]: 453 ng/mL; EC50 [1]: 4.07 nM; CC50 at 5 days [11]: 14100 nM; EC50 [3]: 40.7 nM; EC50 [4]: 17.8 nM; EC50 [5]: 43.7 nM; EC50 [6]: 20 nM; EC50 [7]: 17.4 nM; EC50 [8]: 479 nM"
"CNc1nc2ccc(S(=O)(=O)N(CC(C)C)C[C@@H](O)[C@H](Cc3ccccc3)NC(=O)OC3COC4OCCC34)cc2s1 (stereo partly drawn) [Compound 4, {(1S,2R)-1-benzyl-2-hydroxy-3-[isobutyl-(2-methylamino-benzothiazole-6-sulfonyl)-amino]-propyl}-carbamic acid hexahydro-furo[2,3-b]furan-3-yl ester]",,,2.6,,2.6,,7.9,,2.6,,2.8,,19.1,,"Cmax [9, 14]: 1670 ng/mL; Cmax ([9]; Whistar, blood, po, 10 mpk, or, DMSO, results normalized to 10 mpk, read-out: Cmax): 348 ng/mL; Cmax ([9]; Whistar, blood, po, 10 mpk, or, PEG400, results normalized to 10 mpk, read-out: Cmax): 225 ng/mL; EC50 [1]: 0.457 nM; CC50 at 5 days [11]: > 10000 nM; EC50 [3]: 1.17 nM; EC50 [4]: 1.17 nM; EC50 [5]: 3.63 nM; EC50 [6]: 1.17 nM; EC50 [7]: 1.29 nM; EC50 [8]: 8.71 nM"
